Measurements as given in patent US20240350488A1, “METHODS OF TREATING SWI/SNF DEREGULATED CANCERS” (Fred Hutchinson Cancer Center, priority 2023, published 2024).

Legend:
PDX1 (ARID1A low) = assay: Pre-clinical trial of patient derived xenograft treated with HHT; assay type: in vivo, mouse; conditions: ARID1A low model; HHT 0.7 mg/kg twice daily by oral gavage
From the text: (§1) Arid1a^LoxP/LoxP (Jackson Laboratory), ROSA-LSL-Yfp^KI/KI (Jackson Laboratory), and UBC-Cre^ERT2 (Jackson Laboratory). eEF2K^−/− animals were kindly provided by Alexey G. Ryazanov (Rutgers University). UBC-Cre^ERT2;ROSA-LSL-Yfp^KI/KI;Arid1a^LoxP/LoxP animals (mixed background) were bred to Eef2k^−/− animals (C57BL/6) for one generation to produce progeny heterozygous at all loci (ROSA-LSL-Yfp^KI/+;Arid1a^LoxP/+; eEF2K^+/−) with or without UBC-Cre^ERT2. Heterozygous animals without UBC-Cre^ERT2 were backcrossed once more to ROSA-LSL-Yfp^KI/KI;Arid1a^LoxP/LoxP animals to reintroduce homozygosity at the ARID1A and ROSA-LSL-Yfp, while maintaining heterozygosity at the Eef2k locus (ROSA-LSL-Yfp^KI/KI; Arid1a^LoxP/LoxP; Eef2K^+/−; with and without UBC-Cre^ERT2). […] For survival studies, the body weight of the mouse was recorded and monitored every two days for the duration of the survival trial.
(§2) Tumor pieces (1×1×1 mm) were implanted into the flank of 4-6 weeks old NOD-SCID γ IL-2 mice. Xenografts were measured every 2 days and tumor volume was calculated using the formula (L×W×W)/2, where L is the length of the tumor and W its width. […]

PDX2 (ARID1A medium) = assay: as above; assay type: in vivo, mouse; conditions: ARID1A medium model; HHT 0.7 mg/kg twice daily by oral gavage
From the text: as §1, §2

With `COC(=O)C[C@](O)(CCCC(C)(C)O)C(=O)O[C@@H]1C(OC)=C[C@]23CCCN2CCc2cc4c(cc2[C@H]13)OCO4` [HHT, homoharringtonine] the “decrease in tumor growth” value (PDX1 (ARID1A low)) was 59.3% and the “decrease in tumor growth” value (PDX2 (ARID1A medium)) was 35.9%.
